Data from patent US11149028B2, “Methods for treating melanoma using small molecules” (NOVA SOUTHEASTERN UNIVERSITY, priority 2016, dated 2021).
Entries after “also recorded” stand apart in the source; their conditions may differ. Like-named read-outs stand apart in the source and are kept apart here.

How the values were obtained:
HEPG2 cell line = experiment: Viability of HEPG2 liver cancer cells; type: cell-based
HDAC6 = HDAC6 (Homo sapiens, UniProt Q9UBN7); experiment: HDAC inhibition testing; type: biochemical; conditions: up to 100 μM
MDA-MB-231 cell line = experiment: Viability of MDA-MB-231 breast cancer cells; type: cell-based
[1] = tested on: LC3-II and beclin-1 in WM266-4 cells; experiment: Western blotting for LC3 and beclin-1, WM266-4; type: cell-based, human; conditions: for LC3 and beclin-1, early time point: 30 min, 5-50 μM
Method: 1×10^6 of WM266-4 or M14 cells were seeded in 3 mL of E-MEM or RPMI-1640 medium supplemented with 10% FBS and 1% penicillin/streptomycin in 6 cm plates. […] After washing with TBST, the membranes were treated with chemilumiscent horseradish peroxidase detection reagent (Thermo Scientific, Cat #32209) and exposed to autoradiography film (Denville Scientific, Inc., Metuchen, N.J., USA, cat #E3018). ImageJ software (NIH, Bethesda, Md.) was used to quantify the intensity of proteins bands. The protein bands were normalized against loading controls (β-actin) and expressed as a fold of an untreated control.

M14 cells = experiment: CellTiter-Glo viability assay, M14 melanoma cells (library screening, individual compounds, time course); type: cell-based, human; conditions: for IC50: Homo sapiens, M14
Method: Mixture libraries were solubilized in 3% DMSO/H2O and added to polypropylene 384 well plates (Greiner cat #781280). 1,250 CHO-K1, A549, or M14 cells were plated in 384-well plates in 5 μL of serum-free media (F12 for CHO-K1 and A549, DMEM for M14). Test compounds and gefitinib (pharmacological assay control) were prepared as 10-point, 1:3 serial dilutions starting at 300 then added to the cells (5 μL per well) using the Biomek NX^P. Plates were incubated for 72 h at 37° C., 5% CO2 and 95% RH. After incubation, 5 μL of CellTiter-Glo® (Promega cat #: G7570) were added to each well, and incubated for 15 min at room temperature. Luminescence was recorded using a Biotek Synergy H4 multimode microplate reader. Viability was expressed as a percentage relative to wells containing media only (0%) and wells containing cells treated with 1% DMSO only (100%). Three parameters were calculated on a per-plate basis: (a) the signal-to-background ratio (SB); (b) the coefficient for variation [CV; CV=(standard deviation/mean)×100)] for all compound test wells; and (c) the Z′-factor (18). The IC50 value of the pharmacological control (gefitinib, LC Laboratories #G-4408) was also calculated to ascertain the assay robustness. Time course viability assay was performed as described for library screening with luminescence measurements performed at 4, 24, 48, and 72 h.

[2] = tested on: caspase 9 in WM266-4 cells; experiment: Caspase 9 activity assay; type: cell-based, human; conditions: 0 and 4 h
Method: WM266-4 and M14 cells were plated in 384-well plates in 5 μL of complete media (EMEM and RPMI-1640, respectively). 5 μL of 200 μM 2155-14 and 2155-18 were added to the cells. Plates were incubated at 37° C., 5% CO2 and 95% relative humidity for various lengths of time. After incubation, 5 μL of caspase 3/7, caspase 8, and caspase 9 Glo® reagent (Promega cat #: G7570) were added to each well, and incubated for 15 min at room temperature. Luminescence was recorded using a Biotek Synergy H4 multimode microplate reader.

[3] = tested on: MAPK/PI3K dual phosphorylation of WM266-4 cells; experiment: MAPK-Akt flow cytometry assay; type: cell-based, human; conditions: 48 h, 25 μM
Method: WM266-4 cells were seeded at 250,000 cells/well in E-MEM medium supplemented with 10% FBS and 1% penicillin/streptomycin in 6 well plates (Greiner Bio-One CellStar cat #655180) and allowed to adhere overnight. After incubation cells were treated with control (25 μM dabrafenib+25 μM trametinib), and 25 μM 2155-14 and 18 for 24 and 48 hours. Manufacturer's instructions for Muse™ PI3K/MAPK Dual Pathway Activation kit (EMD Millipore MCH200108) were followed. Cells were harvested, washed with PBS, and re-suspended in 1× assay buffer supplemented with fixation buffer and incubated on ice for 10 min. Cells were permeabilized with permeablization buffer supplied with the kit and incubated with an antibody cocktail (5 μL of Anti-Akt/PKB+5 μL of Anti-phospho-Akt). Cells were analyzed on Muse flow cytometer (EMD Millipore) using PI3K/MAPK Dual Pathway sub-routine.

[4] = tested on: mouse embryonic fibroblasts (MEF); experiment: Viability of mouse embryonic fibroblasts; type: cell-based
Method: Cells were plated in 384-well plates in 8 μL of media. Test compounds and dabrafenib (pharmacological assay control) were prepared as 10-point, 1:3 serial dilutions starting at 300 μM, then added to the cells (4 μL per well) using the Biomek Plates were incubated for 72 h at 37° C., 5% CO2 and 95% relative humidity. After incubation, 4 μL of CellTiter-Glo® (Promega cat #: G7570) were added to each well, and incubated for 15 min at room temperature. Luminescence was recorded using a Biotek Synergy H4 multimode microplate reader. Viability was expressed as a percentage relative to wells containing media only (0%) and wells containing cells treated with DMSO only (100%). Three parameters were calculated on a per-plate basis: (a) the signal-to-background ratio (SB); (b) the coefficient for variation [CV; CV=(standard deviation/mean)×100)] for all compound test wells; and (c) the Z′-factor (18). The IC50 value of the pharmacological control (dabrafenib, LC Laboratories #G-4408) was also calculated to ascertain the assay robustness. In case of viability rescue assays, cells were pre-treated with caspase, calpain, and autophagy inhibitors for 1-3 h before addition of test compounds. Time course viability assay was done with luminescence measurements performed at 4, 24, 48, and 72 h.

Chain of HDAC6 (Q9UBN7 whole entry, species assumed): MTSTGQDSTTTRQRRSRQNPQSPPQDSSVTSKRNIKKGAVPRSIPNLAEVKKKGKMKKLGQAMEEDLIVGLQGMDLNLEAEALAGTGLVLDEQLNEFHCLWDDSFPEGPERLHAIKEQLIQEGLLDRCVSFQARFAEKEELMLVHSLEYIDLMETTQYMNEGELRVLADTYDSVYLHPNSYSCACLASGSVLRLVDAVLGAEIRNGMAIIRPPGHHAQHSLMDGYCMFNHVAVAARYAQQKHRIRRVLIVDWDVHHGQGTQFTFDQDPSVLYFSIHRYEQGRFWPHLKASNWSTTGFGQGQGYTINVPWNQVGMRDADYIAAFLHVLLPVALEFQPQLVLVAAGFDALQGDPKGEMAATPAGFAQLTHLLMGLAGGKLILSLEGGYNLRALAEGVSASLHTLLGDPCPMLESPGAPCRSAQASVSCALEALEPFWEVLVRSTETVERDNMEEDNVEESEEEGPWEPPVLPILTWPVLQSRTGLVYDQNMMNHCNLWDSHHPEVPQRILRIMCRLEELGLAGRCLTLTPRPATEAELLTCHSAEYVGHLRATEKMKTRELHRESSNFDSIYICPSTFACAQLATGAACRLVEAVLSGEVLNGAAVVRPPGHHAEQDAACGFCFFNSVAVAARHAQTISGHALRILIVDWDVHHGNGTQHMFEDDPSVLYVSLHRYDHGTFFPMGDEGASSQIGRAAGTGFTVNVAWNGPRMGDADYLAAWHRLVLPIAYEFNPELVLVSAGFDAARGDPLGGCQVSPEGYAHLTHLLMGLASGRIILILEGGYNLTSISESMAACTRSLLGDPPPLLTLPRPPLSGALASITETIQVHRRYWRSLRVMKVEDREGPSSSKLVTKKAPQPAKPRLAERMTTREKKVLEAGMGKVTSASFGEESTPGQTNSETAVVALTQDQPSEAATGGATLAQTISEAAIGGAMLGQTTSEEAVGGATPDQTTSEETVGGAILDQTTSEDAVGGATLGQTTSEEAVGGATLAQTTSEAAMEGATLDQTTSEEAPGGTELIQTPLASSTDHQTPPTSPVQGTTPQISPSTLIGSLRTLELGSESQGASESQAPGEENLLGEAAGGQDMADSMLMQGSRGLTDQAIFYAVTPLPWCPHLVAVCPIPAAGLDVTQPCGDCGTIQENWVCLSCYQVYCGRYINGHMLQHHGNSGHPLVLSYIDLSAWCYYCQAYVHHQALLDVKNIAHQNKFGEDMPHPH

Structure (SMILES) | selectivity against HEPG2 cell line (HEPG2 cell line) | HDAC6 inhibition (HDAC6) | selectivity against MDA-MB-231 cell line (MDA-MB-231 cell line) | LC3 and beclin-1, early time point [1] | LC3-II level, WM266-4 ([1]; 24 h, 5-200 μM) | beclin-1 level, WM266-4 ([1]; 24 h, 5-200 μM) | inhibition of M14 cell viability at highest concentration (M14 cells; 100 μM) | IC50 (M14 cells; individual compounds, read-out: IC50 for M14 cells) [µM] | caspase 9 signal vs untreated control [2] | PI3K-activated cells [3] | cells with single pathway activation [3] | decrease of cell population with dual pathway activation vs untreated control [3] [%] | increase of cells where both pathways were inactive [3] | toxicity to mouse embryonic fibroblasts [4] | IC50 (M14 cells; read-out: IC50 for M14) [µM] | activity towards M14 cells (M14 cells; individual compounds) | effect on MAPK/PI3K cell populations [3]
O=C1NC[C@H](Cc2ccccc2)N(C[C@@H]2CCCN2C[C@@H](CC2CCCCC2)N2C[C@H](Cc3ccc(O)cc3)N(CCc3ccccc3)C(=O)C2=O)C1=O [Compound 2155-14, (S)-1((R)-1((S)-2-(((S)-6-benzyl-2,3-dioxopiperazin-1-yl)methyl)pyrrolidin-1-yl)-3-cyclohexylpropan-2-yl)-5-(4-hydroxybenzyl)-4-phenethylpiperazine-2,3-dione] | selective | lack of HDAC inhibition | selective | autophagy potentiation as compared to the untreated control was not observed; also recorded: No statistical significance between untreated control and test conditions | Dose dependent increase | Dose dependent increase | not able to fully inhibit | 3.6 ± 0.3 | significantly different from untreated control cells | absence of PI3K activation | not significantly affected | ~20 | approximately 10% | not toxic |  |  | 
O=C1NC[C@H](Cc2ccccc2)N(C[C@@H]2CCCN2C[C@H](Cc2ccccc2)N2C[C@H](Cc3ccc(O)cc3)N(CCC34CC5CC(CC(C5)C3)C4)C(=O)C2=O)C1=O [Compound 2155-18, (S)-4-(2-(adamantan-1yl)ethyl)-1-((S)-1-((S)-2-(((S)-6-benzyl-2,3-dioxopiperazin-1-yl)methyl)pyrrolidin-1-yl)-3-phenylpropan-2-yl)-5-(4-hydroxybenzyl)piperazine-2,3-dione] | selective | lack of HDAC inhibition | selective | No statistical significance between untreated control and test conditions | dose dependent inhibitory effect on basal autophagy |  |  |  | significantly different from untreated control cells |  |  |  |  | not toxic | 0.745 ± 0.06 | improved activity | no effect on either cell population
